In patent US20050009912A1, “Prodrugs of excitatory amino acids” (priority 2001, published 2005) one finds melting point data, which are given here for nine compounds.

Molecules are shown by their SMILES. Some results are limits rather than exact numbers.

For orientation: melting point means the temperature, or range, at which the solid turns liquid. For the compound `Cl.N[C@@]1(C(=O)OCc2ccccc2C(F)(F)F)CC[C@H]2[C@H](C(=O)O)[C@H]21`, the melting point was > 175 °C (dec.).
As to `Cl.N[C@@]1(C(=O)OCc2ccc(Cl)cc2Cl)CC[C@H]2[C@H](C(=O)O)[C@H]21` [Example 29, (1S,2S,5R,6S)-2-Amino-bicyclo[3.1.0]hexane-2,6-dicarboxylic acid 2-(2′,4′-dichloro)benzyl ester hydrochloride], the melting point was 135 to 137 °C.
With `Cl.N[C@@]1(C(=O)OCc2ccccc2F)CC[C@H]2[C@H](C(=O)O)[C@H]21` [Example 31, (1S,2S,5R,6S)-2-Amino-bicyclo[3.1.0]hexane-2,6-dicarboxylic acid 2-(2′-fluoro)benzyl ester hydrochloride] the figure was > 220 °C (dec.); with `Cl.N[C@@]1(C(=O)OCc2cc(Cl)ccc2Cl)CC[C@H]2[C@H](C(=O)O)[C@H]21` [Example 33, (1S,2S,5R,6S)-2-Amino-bicyclo[3.1.0]hexane-2,6-dicarboxylic acid 2-(2′,5′-dichloro)benzyl ester hydrochloride], 173 to 175 °C.
With `Cl.N[C@@]1(C(=O)OCc2ccccc2Br)CC[C@H]2[C@H](C(=O)O)[C@H]21` [Example 34, (1S,2S,5R,6S)-2-Amino-bicyclo[3.1.0]hexane-2,6-dicarboxylic acid 2-(2′-bromo)benzyl ester hydrochloride] the figure was 190 to 191 °C; with `Cl.N[C@@]1(C(=O)OCc2cc(F)cc(F)c2)CC[C@H]2[C@H](C(=O)O)[C@H]21` [Example 35, (1S,2S,5R,6S)-2-Amino-bicyclo[3.1.0]hexane-2,6-dicarboxylic acid 2-(31,5′-difluoro)benzyl ester hydrochloride], 98 to 99 °C.
With `Cc1ccc(C)c(COC(=O)[C@]2(N)CC[C@H]3[C@H](C(=O)O)[C@H]32)c1.Cl` [Example 41, (1S,2S,5R,6S)-2-Amino-bicyclo[3.1.0]hexane-2,6-dicarboxylic acid 2-(2′,5′-dimethyl)benzyl ester hydrochloride] the figure was 70 °C (dec.).
Regarding `COc1ccccc1COC(=O)[C@]1(N)CC[C@H]2[C@H](C(=O)O)[C@H]21` [Example 48, (1S,2S, SR, 6S)-2-Amino-bicyclo[3.1.0]hexane-2,6-dicarboxylic acid 2-(2′-methoxy)benzyl ester], the melting point is 195 °C (dec.).
With `N[C@@]1(C(=O)OCc2cccc(F)c2)CC[C@H]2[C@H](C(=O)O)[C@H]21` [Example 54, (1S, 2S, SR,6S)-2-Amino-bicyclo[3.1.0]hexane-2,6-dicarboxylic acid 2-(3′-fluoro)benzyl ester] the figure was 225 °C (dec.).
